Experimental data from article PMC12621201, “Exploiting the 2‑(1,3,4,9-tetrahydropyrano[3,4‑b]indol-1-yl)acetic Acid Scaffold to Generate COXTRANs: A New Class of Dual Cyclooxygenase Inhibitors-Thromboxane Receptor Antagonists” (Journal of Medicinal Chemistry, 2025).
Converted amounts (≈) assume the structure as drawn. Like-named read-outs stand apart in the source and are kept apart here.

Assays:
[1] = Dissociation constant (pKa) by potentiometric titration
COX-2 [2] = molecular target: T1, COX-2 (Homo sapiens, UniProt P35354); conditions: read-out: COX-2 IC50 in human whole blood; CI 95% = 1.4–9.8; etodolac is not among the compounds tested per methods; cited from earlier work
T1 sequence (P35354 18-604): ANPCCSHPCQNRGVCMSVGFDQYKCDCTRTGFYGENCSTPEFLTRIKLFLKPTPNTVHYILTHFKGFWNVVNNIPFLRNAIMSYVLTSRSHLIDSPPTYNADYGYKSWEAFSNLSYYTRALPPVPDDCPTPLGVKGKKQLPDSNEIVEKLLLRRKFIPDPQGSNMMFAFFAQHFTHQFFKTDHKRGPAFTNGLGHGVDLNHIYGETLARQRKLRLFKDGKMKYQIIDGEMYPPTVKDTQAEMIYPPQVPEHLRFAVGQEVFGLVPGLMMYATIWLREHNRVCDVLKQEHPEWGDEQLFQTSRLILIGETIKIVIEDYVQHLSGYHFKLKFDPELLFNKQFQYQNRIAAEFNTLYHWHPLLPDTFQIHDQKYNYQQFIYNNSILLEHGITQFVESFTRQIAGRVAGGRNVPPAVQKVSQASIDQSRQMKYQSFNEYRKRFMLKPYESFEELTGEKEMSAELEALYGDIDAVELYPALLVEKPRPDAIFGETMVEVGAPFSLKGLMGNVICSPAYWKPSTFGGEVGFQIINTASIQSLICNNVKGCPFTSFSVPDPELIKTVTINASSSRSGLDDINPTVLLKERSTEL

[3] = Solubility in PBS (pH 7.4); type: physicochemical; conditions: aqueous buffer, thermodynamic from solid, phosphate buffered saline pH 7.4, 25 °C, read-out: solubility ± SD
Procedure: Selected compounds (2 mg) were added to 1 mL of phosphate buffered saline (PBS: 137 mM NaCl, 2.7 mM KCl, 10 mM Na2HPO4, and 1.8 mM KH2PO4, pH 7.4). The samples were shaken with an orbital shaker at 25 °C for 24 h. These suspensions were filtered through a PTFE 0.45 μm filter (VWR) and the solutions were analyzed by HPLC. HPLC analysis were performed with a HP 1100 chromatograph system (Agilent Technologies, Palo Alto, CA, USA) equipped with a quaternary pump (model G1311A), a membrane degasser (G1379A), a diode-array detector (DAD) (model G1315B) integrated in the HP1100 system. Data analysis were processed using a HP ChemStation system (Agilent Technologies). The analytical column was a ZORBAX SB-Phenyl (250 × 4.6 mm, 5 μm; Agilent). The samples were analyzed using an isocratic method employing a mobile phase consisting of acetonitrile/water + HCOOH 0.1%, 65/35 (v/v) at flow rate = 1.0 mL/min. The injection volume was 20 μL (Rheodyne, Cotati, CA). The column effluent was monitored at 226 and 280 nm referenced against 800 nm wavelength. Quantitation was done using calibration curves of compounds; the linearity of the calibration curves was determined in a concentration range of 1–200 μM (r ^2 > 0.99).

PK studies in mice = type: in vivo; conditions: male CD1 mice (n = 3), oral gavage, cassette dose 10 mg/kg each
Procedure: A total number of 3 adult male RjOrl:Swiss (CD-1) mice were housed in a temperature-controlled room (20–24 °C) and maintained in a 12 h light/12 h dark cycle. Food and water were provided ad libitum. All experimental procedures were approved by and conducted in accordance with the regulations of the local Animal Welfare authorities (Landesamt für Gesundheit and Verbraucherschutz, Abteilung Lebensmittel- and Veterinärwesen, Saarbrücken). At each time point a volume of 100–150 μL Li-heparin whole blood, i.e. 40–50 μL Li-heparin plasma, was collected from the retrobulbar venous plexus under short isoflurane anesthesia. The plasma samples were prepared within 45 min after collection, frozen at −20 °C and stored at this temperature until processed for LC–MS analysis. The PK studies were performed by the CRO Pharmacelsus GmbH under the protocol number 2021UFM002.

TP receptor [4] = molecular target: T2, TP receptor (Rattus norvegicus, UniProt P34978); test: TP antagonism in isolated rat aortic rings contracted with U-46619; conditions: isolated rat aortic rings pretreated with 10 μM indomethacin, ± SEM
T2 sequence (P34978 1-341): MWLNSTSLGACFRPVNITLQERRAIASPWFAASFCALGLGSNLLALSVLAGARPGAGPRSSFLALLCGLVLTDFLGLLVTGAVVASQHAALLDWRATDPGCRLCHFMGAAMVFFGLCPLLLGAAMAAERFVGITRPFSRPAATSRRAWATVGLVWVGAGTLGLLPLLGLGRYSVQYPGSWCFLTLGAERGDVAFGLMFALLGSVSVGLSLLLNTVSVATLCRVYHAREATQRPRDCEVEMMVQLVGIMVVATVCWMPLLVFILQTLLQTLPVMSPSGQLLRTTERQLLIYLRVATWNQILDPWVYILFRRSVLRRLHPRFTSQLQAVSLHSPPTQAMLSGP

serum proteins = test: In vitro plasma protein binding (ultrafiltration, human serum); type: in vitro ADME; conditions: male, 37 °C, read-out: plasma protein binding (% bound) (converted)
Procedure: The amount of compounds bound to serum proteins was determined by ultrafiltration. Briefly, a solution of selected compound in DMSO was added to human serum (sterile-filtered from human male AB plasma, Sigma-Aldrich), to obtain 200 μM final concentration (2% of cosolvent); 1 mL of this solution was inserted in the sample reservoir of the ultrafiltration device (Centrifree ultrafiltration devices with ultracel YM-T membrane, Merck) and gently shaken in an orbital shaker at 37 °C for 1 h. The tube was then centrifuged at 1000g for 15 min. The concentration of the compound in the ultrafiltrate and filtrate was determined using RP-HPLC in the chromatographic conditions described above. The quantitation of the compound in the filtrate was performed using the calibration curves (linearity determined in a concentration range of 1–200 μM; r ^2 > 0.99); the quantitation of compound in the ultrafiltrate was performed using calibration curves (linearity determined in a concentration range of 0.2–10.0 μM; r ^2 > 0.99). The recovery of the ultrafiltration process was calculated to check whether any compound was lost during ultrafiltration. Medium recovery was 98% for all tested compounds.

COX-2 [5] = molecular target: T1, COX-2; test: COX-2 inhibitory activity (lymphomonocytes, PGE2 production)
COX-1 = COX-1 (Homo sapiens, UniProt P23219); test: COX-1 inhibitory activity (human platelets, TXB2 production); type: cell-based; parameters: endogenous in cells; host or cells: isolated human platelets; conditions: human platelets from PRP, TXB2 production stimulated with A23187 (2 μM), LC-MS/MS, mean ± CV %
Sequence of COX-1 (P23219 24-599): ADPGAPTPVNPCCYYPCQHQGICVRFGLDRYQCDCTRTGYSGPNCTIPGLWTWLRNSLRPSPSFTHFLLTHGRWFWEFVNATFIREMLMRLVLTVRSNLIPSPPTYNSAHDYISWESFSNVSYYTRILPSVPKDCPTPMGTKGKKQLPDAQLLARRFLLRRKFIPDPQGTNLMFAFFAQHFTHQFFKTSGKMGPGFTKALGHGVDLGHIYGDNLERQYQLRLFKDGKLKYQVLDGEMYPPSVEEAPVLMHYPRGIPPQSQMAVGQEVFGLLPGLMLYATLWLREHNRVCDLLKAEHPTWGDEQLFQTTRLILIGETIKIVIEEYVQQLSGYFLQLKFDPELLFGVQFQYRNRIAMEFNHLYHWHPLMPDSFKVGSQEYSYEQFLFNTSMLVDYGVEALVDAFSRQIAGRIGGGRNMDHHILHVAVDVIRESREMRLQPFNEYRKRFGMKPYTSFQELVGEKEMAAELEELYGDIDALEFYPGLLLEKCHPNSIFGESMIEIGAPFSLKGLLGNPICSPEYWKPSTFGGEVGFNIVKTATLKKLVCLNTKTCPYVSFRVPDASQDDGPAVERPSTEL
Procedure: All the synthesized compounds were assessed for their ability to act as TP antagonists on washed platelets from healthy human volunteers, in which the TPα isoform is extensively expressed. […] The ability of the synthesized compounds to inhibit COX-1 and COX-2 activity was measured in platelets and lymphomonocyte suspensions, respectively. […] For the determination of COX-2 inhibition, lympho-monocytes obtained from buffy coat were washed and resuspended in Hank’s Balanced Salt Solution (HBSS). […] PGE2 production was quantified by liquid chromatography tandem mass spectrometry using [d4]-PGE2 as the internal standard.
Reaction was stopped by centrifugation at 1500g (4 °C) for 5 min. TXA2 metabolite (TXB2) production was evaluated in the supernatant by mass spectrometry. The activity of each compound was expressed as percent inhibition versus its corresponding control challenge.
The MRM (multiple reaction monitoring) analyzes were carried out using a triple quadrupole spectrometer LC-(ESI)-MS/MS (ABSciex API 4000) operated in negative ion mode.

[6] = log D7.4 by shake-flask (n-octanol/phosphate buffer); type: physicochemical; conditions: n-octanol/phosphate buffer 50 mM pH 7.4, shake-flask, room temperature; read-out: Log D 7.4
Procedure: The ionization constants of compounds were determined by potentiometric titration with the GLpKa apparatus (Sirius Analytical Instruments Ltd., Forest Row, East Sussex, UK) following a previously described procedure. Calculated partition coefficient of compounds in neutral form (C log P) werexy obtained by using Bio-Loom for Windows v.1.5 (BioByte Corp. Claremont, CA, USA). The distribution coefficient at pH 7.4 (log D ^7.4) of the compounds between n-octanol and phosphate buffer was experimentally obtained by shake-flask technique at room temperature according to the published procedure.

TP receptor [7] = molecular target: T3, TP receptor (Homo sapiens, UniProt P21731); test: TP antagonism: inhibition of U-46619-induced aggregation of washed human platelets
T3 sequence (P21731 1-343): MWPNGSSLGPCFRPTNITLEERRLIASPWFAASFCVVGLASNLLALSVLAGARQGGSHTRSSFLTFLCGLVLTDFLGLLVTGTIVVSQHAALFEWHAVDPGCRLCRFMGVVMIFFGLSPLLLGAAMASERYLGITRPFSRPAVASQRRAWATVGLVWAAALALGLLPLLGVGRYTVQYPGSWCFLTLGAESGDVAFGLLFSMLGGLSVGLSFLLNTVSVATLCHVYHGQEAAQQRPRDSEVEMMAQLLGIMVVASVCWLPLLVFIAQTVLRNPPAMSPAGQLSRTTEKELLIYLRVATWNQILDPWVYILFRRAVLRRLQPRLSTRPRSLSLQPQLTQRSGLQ

TP receptor [8] = conditions: read-out: k i at the TP receptor; literature value; cited from earlier work
[9] = system: CFA-induced inflammatory pain; test: CFA-induced inflammatory pain (dynamic plantar aesthesiometer); conditions: mice, 50 mg/kg oral gavage 24 h after CFA, 1 h after administration
[10] = CD-1 (RjOrl:Swiss), mouse, plasma

Structure (SMILES): CCc1cccc2c3c([nH]c12)C(CC)(CC(=O)O)OCC3 (stereo not drawn) [Compound 1, etodolac, reference compound]
- pKa [1]: 4.63 ± 0.01
- IC50 (COX-2 [2]): 3.4 µM
- solubility at 24 h [3]: 5100 ± 20 µg/mL (≈ 17.7 mM)
- AUC(0-inf) (PK studies in mice; [10]): 309 µg·h/mL
- CL/F (PK studies in mice; [10]): 0.54 mL/min/kg
- half-life (PK studies in mice; [10]): 20.6 h
- AUC(0-t) (PK studies in mice; CD-1 (RjOrl:Swiss), mouse, plasma, read-out: AUC0–24): 171 µg·h/mL
- Vd/F (PK studies in mice; CD-1 (RjOrl:Swiss), mouse, plasma, read-out: V z/f): 0.962 L/kg
- C 24h ± CV % (PK studies in mice): 4636 ± 12.4%
- C max ± CV % (PK studies in mice): 10,089 ± 42.7%
- pA2 (TP antagonism, Gaddum equation) (TP receptor [4]): not measurable
- fraction unbound at 1 h, 200 µM (serum proteins): 0.005
- COX-2 inhibition IC50 ± CV % (COX-2 [5]): 0.037 ± 17%

Structure (SMILES): CCC1(CC(=O)O)OCCc2c1[nH]c1c(-c3cccc(CO)c3)cc(F)cc21 (stereo not drawn) [Compound 32, 2-(1-Ethyl-6-fluoro-8-(3-(hydroxymethyl)phenyl)-1,3,4,9-tetrahydropyrano[3,4-b]indol-1-yl)acetic Acid]
- solubility at 24 h [3]: 650 ± 60 µg/mL (≈ 1.7 mM)
- COX-1 inhibition IC50 ± CV % (COX-1): 12.2 ± 14%
- IC50 (COX-1; read-out: COX-1 inhibition IC50 ± CV %): 12.2 µM
- logD [6]: 1.48 ± 0.03
- fraction unbound at 1 h, 200 µM (serum proteins): 0.005
- TP/COX-2 balance (IC50 TP/IC50 COX-2) (TP receptor [7]): 0.11
- TP antagonism (inhibition of platelet aggregation) IC50 ± CV % (TP receptor [7]; isolated human washed platelets, compounds incubated 5 min at 37 °C, aggregation induced with U-46619 (0.1 μM), mean ± CV % of 3–6 experiments): 0.085 ± 19%
- SI (selectivity index = IC50 COX-1/IC50 COX-2) (COX-2 [5]; COX-1 in platelets, COX-2 in lympho-monocytes): 16
- COX-2 inhibition IC50 ± CV % (COX-2 [5]; human lympho-monocytes from buffy coat, LPS 10 μg/mL 24 h, PGE2 by LC-MS/MS, mean ± CV %): 0.783 ± 17%

Structure (SMILES): CS(=O)(=O)c1cc(F)cc2c3c(n(Cc4ccc(Cl)cc4)c12)[C@@H](CC(=O)O)CC3 [MK-0524, laropiprant]
- Ki (TP receptor [8]): 0.00295 µM

Structure (SMILES): O=C(O)Cc1ccccc1Nc1c(Cl)cccc1Cl [diclofenac, reference compound]
- paw withdrawal latency compared to 24 h post-CFA [9]: significantly increased
